Experimental data taken from US6919425B2, “Isolation of a cell-specific internalizing peptide that infiltrates tumor tissue for targeted drug delivery” (Board of Regents, The University of Texas System, priority 2000, dated 2005).
Entries after “also recorded” stand apart in the source; their conditions may differ. Starred links: 1 amine or outer side, 2 acyl side, 3 side chain; linkers in the order of their positions; H or OH if unused. Positions of bridges follow the written chain, without caps; N, C: chain ends. Non-standard residues stand in square brackets, D forms with d. Residues, ends and D or L forms follow the SMILES beside them. Chains are numbered I, II in the order given. Actinocin(9to1) = Cc1c2oc3c(C)ccc(C(=O)[*:1])c3nc-2c(C(=O)[*:2])c(N)c1=O; NMeV = CN[C@H](C(=O)O)C(C)C; Sar = CNCC(=O)O

Legend:
[1] = mouse, in vivo; cited from earlier work
[2] = cited from earlier work
[3] = test system: MDA177Tu cells
[4] = Toxicity, immunogenicity and stability in HN-1 injected mice; type: in vivo

Bleomycin
concentrations in hematopoietic tissue / bone marrow [1]: low concentrations
concentrations in skin, lungs, kidneys, peritoneum and lymphatics [1]: high concentrations

O=NN(CCCl)C(=O)NC1CCCCC1 [Lomustine, 1-(2-chloro-ethyl)-3-cyclohexyl-1nitrosourea]
tissue levels relative to plasma levels ([2]; in vivo, iv): comparable

O=C1OC2(c3ccc(O)cc3Oc3cc(O)ccc32)c2ccccc21 [fluorescein]
permeability of the dyes themselves [3]: impermeable

CC[C@]1(O)C[C@@H]2CN(CCc3c([nH]c4ccccc34)[C@@](C(=O)OC)(c3cc4c(cc3OC)N(C)[C@H]3[C@@](O)(C(=O)OC)[C@H](OC(C)=O)[C@]5(CC)C=CCN6CC[C@]43[C@@H]65)C2)C1 [Vinblastine]
dose excreted / detected intact in the urine ([2]; in vivo): Approximately 15%
half-life of disappearance from plasma after distribution (first of two) ([2]; intravenous injection): approximately 1 hours
half-life of disappearance from plasma after distribution (second of two) ([2]; intravenous injection): ~20 h

CC[C@H](C)[C@H](NC(=O)[C@H](CC(N)=O)NC(=O)[C@H](CC(C)C)NC(=O)[C@@H]1CCCN1C(=O)[C@H](CO)NC(=O)[C@@H](N)[C@@H](C)O)C(=O)N[C@@H](Cc1c[nH]cn1)C(=O)N[C@@H](CC(N)=O)C(=O)NCC(=O)N[C@@H](CCC(N)=O)C(=O)N[C@@H](CCCCN)C(=O)N[C@@H](CC(C)C)C(N)=O [HN-1] (H-TSPLNIHNGQKL-NH2; N-terminus and C-terminus assumed)
toxicity ([4]; histology of organs of injected mice): no histological evidence of organotoxicity; also recorded: nontoxic
immunogenicity ([4]; mouse, in vivo): nonimmunogenic
protection of cargo during transit ([4]; mouse, in vivo): protects its “cargo” during transit; also recorded: protects its cargo during transit
stability in vivo ([4]; shown by detecting intact peptide in blood 24 h after injection): stable in vivo

Cc1c2oc3c(C)ccc(C(=O)N[C@@H]4C(=O)N[C@H](C(C)C)C(=O)N5CCC[C@H]5C(=O)N(C)CC(=O)N(C)[C@@H](C(C)C)C(=O)O[C@@H]4C)c3nc-2c(C(=O)N[C@@H]2C(=O)N[C@H](C(C)C)C(=O)N3CCC[C@H]3C(=O)N(C)CC(=O)N(C)[C@@H](C(C)C)C(=O)O[C@@H]2C)c(N)c1=O [Actinomycin D] (I: T[dV]P[Sar][NMeV] / II: T[dV]P[Sar][NMeV]; ester I:1-I:C, II:1-II:C; linker I:N-II:N via Actinocin(9to1))
dose excreted / detected intact in the urine ([2]; in vivo): 10%

CC[C@]1(O)C[C@H]2CN(CCc3c([nH]c4ccccc34)[C@@](C(=O)OC)(c3cc4c(cc3OC)N(C=O)[C@H]3[C@@](O)(C(=O)OC)[C@H](OC(C)=O)[C@]5(CC)C=CCN6CC[C@]43[C@@H]65)C2)C1 [Vincristine]
terminal half-life of clearance from the plasma ([2]; multiphasic): about 24 hours
